Measurements from patent publication US10966426B2, “Herbicidal compositions comprising phenylpyrimidines” (BASF SE, priority 2016, dated 2021).
Where two headings read alike, the source gives them in different places.

Legend:
Type in all cases: in vivo
Stellaria media = experiment: greenhouse pre-emergence treatment, STEME; details: Stellaria media, 480 h, 20 DAT
How it was run: (§1)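 Seeds were sown per species in pots of loamy sand with about 3.0% humus, sprayed with the aqueous spray liquor directly after sowing, watered and hooded until rooted, then kept at 10-25° C. or 20-35° C. for 2 to 4 weeks. Damage was scored 0 (none) to 100 (no emergence/complete destruction).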

Polygonum convolvulus = experiment: greenhouse pre-emergence treatment, POLCO; details: Fallopia convolvulus, 480 h, 20 DAT, POLCO
How it was run: as §1

Digitaria sanguinalis = experiment: greenhouse post-emergence treatment, DIGSA; details: Digitaria sanguinalis, 480 h, 20 DAT
How it was run: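 Scoring used a 0 to 100 scale, with 100 denoting no emergence or full destruction of at least the above-ground parts, recorded within a 2 to 4 week test period. Test plants grew in loamy sand containing about 3.0% humus at 10-25° C. or 20-35° C., after direct sowing or transplanting, and received water-based treatments post-emergence.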

Galium aparine [1] = experiment: greenhouse pre-emergence treatment, GALAP; details: Galium aparine, 480 h, 20 DAT, GALAP
How it was run: as §1

Papaver rhoeas [2] = experiment: greenhouse post-emergence treatment, PAPRH; details: Papaver rhoeas, 480 h, PAPRH, 20 DAT
How it was run: (§2)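 Seeds sown per species in pots of loamy sand; seedlings either grown in place or transplanted days before treatment. Post-emergence spray of water-based liquor at 3–15 cm height. Injury rated 0–100 over 2 to 4 weeks.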

Echinocloa crus-galli = experiment: greenhouse post-emergence treatment, ECHCG; details: Echinochloa crus-galli, 480 h, 20 DAT, flufenacet solo 31.25 gai/ha
How it was run: as §2

Helianthus annuus = experiment: greenhouse post-emergence treatment, HELAN; details: Helianthus annuus, 480 h, 20 DAT
Procedure: The culture containers used were plastic pots containing loamy sand with approximately 3.0% of humus as substrate. The seeds of the test plants were sown separately for each species.
For the post-emergence treatment, the test plants were grown to a plant height of from 3 to 15 cm, depending on the plant habit, and only then treated with the active compounds which had been suspended or emulsified in water. To this end, the test plants were either sown directly, and grown in the same containers, or they were first grown separately as seedlings and transplanted into the test containers a few days prior to treatment.
Depending on the species, the plants were kept at 10-25° C. and 20-35° C., respectively.
The test period extended over 2 to 4 weeks. During this time, the plants were tended and their response to the individual treatments was evaluated.
Evaluation was carried out using a scale from 0 to 100. 100 means no emergence of the plants, or complete destruction of at least the above-ground parts, and 0 means no damage or normal course of growth. A good herbicidal activity is given at values of at least 70, and very good herbicidal activity is given at values of at least 85.
The respective stated components A and B, and if appropriate, C were formulated as a 10% by weight strength emulsion concentrate and, with addition of the amount of solvent system, introduced into the spray liquor used for applying the active compound. In the examples, the solvent used was water.
In the examples below, using the method of S. R. Colby (1967) “Calculating synergistic and antagonistic responses of herbicide combinations”, Weeds 15, p. 22ff., the value E, which is expected if the activity of the individual active compounds is only additive, was calculated. E=X+Y−(X·Y/100) where X=effect in percent using herbicide A at an application rate a; • Y=effect in percent using herbicide B at application rate b; • E=expected effect (in %) of herbicide A+herbicide B at application rates a+b.

Polygonum aviculare = experiment: greenhouse post-emergence treatment, POLAV; details: Polygonum aviculare, 480 h, 20 DAT
How it was run: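 Visual herbicidal effect (0–100) recorded over a 2 to 4 week test period after foliar treatment at plant heights of 3 to 15 cm. Expected combination effects derived by the Colby formula from single-component effects X and Y.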

Brachiaria decumbens = experiment: greenhouse pre-emergence treatment, BRADC; details: Urochloa decumbens, 480 h, solo, WG 70%, BRADC, 62.5 gai/ha, 20 DAT
How it was run: as §1

Apera spica-venti [3] = experiment: greenhouse pre-emergence treatment, APESV; details: solo, WG 70%, 20 DAT
How it was run: as §1

Galium aparine [4] = experiment: greenhouse post-emergence treatment, GALAP; details: Galium aparine, 480 h, 20 DAT, GALAP
How it was run: as §2

Apera spica-venti [5] = experiment: greenhouse post-emergence treatment, APESV; details: 20 DAT, APESV; for % activity: solo, WG 70%
How it was run: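 Greenhouse; post-emergence spray at 3–15 cm; aqueous EC formulation; 2–4 weeks; 0–100 visual score.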

Papaver rhoeas [6] = experiment: greenhouse pre-emergence treatment, PAPRH; details: 20 DAT
How it was run: as §1

[7] = flufenacet SC 500 g/l solo 15.6 gai/ha
[8] = flufenacet SC 500 g/l solo 31.25 gai/ha
[9] = flufenacet solo 62.5 gai/ha, read-out: % activity
[10] = flufenacet solo 125 gai/ha, read-out: % activity

Compound `CC(C)N(C(=O)COc1nnc(C(F)(F)F)s1)c1ccc(F)cc1` [flufenacet] has an inhibition at 15.6 g/ha (Stellaria media; [7]) of 0%, an inhibition at 31.25 g/ha (Stellaria media; [8]) of 0% and an inhibition at 62.5 g/ha (Stellaria media; flufenacet SC 500 g/l solo 62.5 gai/ha) of 0%. It also gave an inhibition at 125 g/ha (Stellaria media; flufenacet SC 500 g/l solo 125 gai/ha) of 0%, an inhibition at 62.5 g/ha (Polygonum convolvulus; sc, flufenacet SC 500 g/l solo 62.5 gai/ha, read-out: % activity) of 0% and an inhibition at 125 g/ha (Polygonum convolvulus; sc, flufenacet SC 500 g/l solo 125 gai/ha, read-out: % activity) of 0%. The inhibition at 62.5 g/ha (Digitaria sanguinalis; [9]) was 10%, the inhibition at 125 g/ha (Digitaria sanguinalis; [10]) was 20% and the inhibition at 250 g/ha (Digitaria sanguinalis; flufenacet solo 250 gai/ha, read-out: % activity) was 65%. For the same compound, the % herbicidal activity (weed control, 0-100 scale) at 15.6 g/ha (Galium aparine [1]; [7]) was 0%, the % herbicidal activity (weed control, 0-100 scale) at 31.25 g/ha (Galium aparine [1]; [8]) was 0% and the % herbicidal activity (weed control, 0-100 scale) at 62.5 g/ha (Galium aparine [1]; flufenacet SC 500 g/l solo 62.5 gai/ha, read-out: % activity) was 0%. The % herbicidal activity (weed control, 0-100 scale) at 125 g/ha (Galium aparine [1]; flufenacet SC 500 g/l solo 125 gai/ha, read-out: % activity) was 40%, the inhibition at 500000 µg/mL (stock) (Papaver rhoeas [2]; solo flufenacet (SC 500 g/l) 250 gai/ha) was 0% and the inhibition at 31.25 g/ha (Echinocloa crus-galli) was 25%. For the same compound, the inhibition at 125 g/ha (Helianthus annuus; flufenacet solo 125 gai/ha) was 30%, the inhibition at 62.5 g/ha (Polygonum aviculare; [9]) was 0% and the inhibition at 125 g/ha (Polygonum aviculare; [10]) was 0%. It also gave an inhibition at 250 g/ha (Polygonum aviculare; flufenacet solo 250 gai/ha) of 0% and an inhibition at 500000 µg/mL (stock) (Polygonum aviculare; POLAV, solo flufenacet (SC 500 g/l) 250 gai/ha) of 0%.
`CSc1nnc(C(C)(C)C)c(=O)n1N` [metribuzin] was tested, and the pest or weed control at 62.5 g/ha (Brachiaria decumbens) was 0%, the inhibition at 62.5 g/ha (Polygonum convolvulus; metribuzin WG 70% solo 62.5 gai/ha, read-out: % activity) was 0% and the inhibition at 125 g/ha (Polygonum convolvulus; metribuzin WG 70% solo 125 gai/ha, read-out: % activity) was 0%. The inhibition at 250 g/ha (Polygonum convolvulus; metribuzin WG 70% solo 250 gai/ha, read-out: % activity) was 0%, the pest or weed control at 62.5 g/ha (Polygonum convolvulus; solo, WG 70%, 62.5 gai/ha) was 0% and the pest or weed control at 125 g/ha (Polygonum convolvulus; solo, WG 70%, 125 gai/ha) was 0%. It also gave an inhibition at 17.5 g/ha (Digitaria sanguinalis; DIGSA, metribuzin WG 70% solo 17.5 gai/ha) of 0%, an inhibition at 35 g/ha (Digitaria sanguinalis; DIGSA, metribuzin WG 70% solo 35 gai/ha) of 35% and a pest or weed control at 17.5 g/ha (Digitaria sanguinalis; solo, WG 70%, DIGSA, 17.5 gai/ha) of 0%. The pest or weed control at 35 g/ha (Digitaria sanguinalis; solo, WG 70%, DIGSA, 35 gai/ha) was 35%, the pest or weed control at 140 g/ha (Digitaria sanguinalis; solo, WG 70%, DIGSA, 140 gai/ha) was 85% and the “% activity” value (Apera spica-venti [3]; 31.25 gai/ha) was 30%. For the same compound, the “% activity” value (Apera spica-venti [3]; 62.5 gai/ha) was 50%, the inhibition at 17.5 g/ha (Galium aparine [4]; metribuzin WG 70% solo 17.5 gai/ha) was 0% and the inhibition at 35 g/ha (Galium aparine [4]; metribuzin WG 70% solo 35 gai/ha) was 0%. For the same compound, the inhibition at 70 g/ha (Galium aparine [4]; metribuzin WG 70% solo 70 gai/ha) was 0%, the inhibition at 140 g/ha (Galium aparine [4]; metribuzin WG 70% solo 140 gai/ha) was 0% and the pest or weed control at 35 g/ha (Galium aparine [4]; solo, WG 70%, 35 gai/ha) was 0%. The pest or weed control at 70 g/ha (Galium aparine [4]; solo, WG 70%, 70 gai/ha) was 0%, the pest or weed control at 140 g/ha (Galium aparine [4]; solo, WG 70%, 140 gai/ha) was 0% and the % herbicidal activity (weed control, 0-100 scale) at 250 g/ha (Galium aparine [1]; metribuzin WG 70% solo 250 gai/ha) was 0%. The pest or weed control at 250 g/ha (Galium aparine [1]; solo, WG 70%, 250 gai/ha) was 0%, the pest or weed control at 17.5 g/ha (Papaver rhoeas [2]; solo, WG 70%, 17.5 gai/ha) was 60% and the inhibition at 17.5 g/ha (Apera spica-venti [5]; Apera spica-venti, 480 h, metribuzin WG 70% solo 17.5 gai/ha) was 10%. For the same compound, the inhibition at 35 g/ha (Apera spica-venti [5]; Apera spica-venti, 480 h, metribuzin WG 70% solo 35 gai/ha) was 55%, the “% activity” value (Apera spica-venti [5]; 17.5 gai/ha) was 10% and the “% activity” value (Apera spica-venti [5]; 35 gai/ha) was 55%. The “% activity” value (Apera spica-venti [5]; 70 gai/ha) was 90%, the inhibition at 35 g/ha (Helianthus annuus; HELAN, metribuzin WG 70% solo 35 gai/ha) was 70% and the inhibition at 31.25 g/ha (Papaver rhoeas [6]; Papaver rhoeas, 480 h, metribuzin WG 70% solo 31.25 gai/ha) was 80%. The inhibition at 125 g/ha (Papaver rhoeas [6]; Papaver rhoeas, 480 h, metribuzin WG 70% solo 125 gai/ha) was 98% and the “% activity” value (Papaver rhoeas [6]; solo, WG 70%, 31.25 gai/ha) was 80%.
